Test results as given in patent US8143244B2, “Cyclopropyl fused indolobenzazepine HCV NS5B inhibitors” (Bristol-Myers Squibb Company, priority 2009, dated 2012).
Where two headings read alike, the source gives them in different places.

What was measured:
HCV NS5B = biological target: T1, HCV NS5B (Hepatitis C virus genotype 1b, UniProt Q9WMX2); assay: HCV NS5B RdRp enzyme assay; type: biochemical; conditions: HCV NS5B RdRp genotype 1b
T1 construct: The protein was expressed with an 18 amino acid C-terminal truncation to enhance the solubility; made in house; host or cells: E. coli BL21(DE3)
Protocol: HCV NS5B RdRp cloning, expression, and purification. The cDNA encoding the NS5B protein of HCV, genotype 1b, was cloned into the pET21a expression vector. The protein was expressed with an 18 amino acid C-terminal truncation to enhance the solubility. The E. coli competent cell line BL21(DE3) was used for expression of the protein. Cultures were grown at 37° C. for ˜4 hours until the cultures reached an optical density of 2.0 at 600 nm. The cultures were cooled to 20° C. and induced with 1 mM IPTG. Fresh ampicillin was added to a final concentration of 50 μg/ml and the cells were grown overnight at 20° C.
Cell pellets (3L) were lysed for purification to yield 15-24 mgs of purified NS5B. The lysis buffer consisted of 20 mM Tris-HCl, pH 7.4, 500 mM NaCl, 0.5% triton X-100, 1 mM DTT, 1 mM EDTA, 20% glycerol, 0.5 mg/ml lysozyme, 10 mM MgCl2, 15 ug/ml deoxyribonuclease I, and Complete TM protease inhibitor tablets (Roche). After addition of the lysis buffer, frozen cell pellets were resuspended using a tissue homogenizer. To reduce the viscosity of the sample, aliquots of the lysate were sonicated on ice using a microtip attached to a Branson sonicator. The sonicated lysate was centrifuged at 100,000×g for 1 hr at 4° C. and filtered through a 0.2 μm filter unit (Corning).
The protein was purified using three sequential chromatography steps: Heparin sepharose CL-6B, polyU sepharose 4B, and Hitrap SP sepharose (Pharmacia). The chromatography buffers were identical to the lysis buffer but contained no lysozyme, deoxyribonuclease I, MgCl2 or protease inhibitor and the NaCl concentration of the buffer was adjusted according to the requirements for charging the protein onto the column. Each column was eluted with a NaCl gradient which varied in length from 5-50 column volumes depending on the column type. After the final chromatography step, the resulting purity of the enzyme is >90% based on SDS-PAGE analysis. The enzyme was aliquoted and stored at −80° C.
Standard HCV NS5B RdRp enzyme assay. HCV RdRp genotype 1b assays were run in a final volume of 60 μl in 96 well plates (Costar 3912). The assay buffer is composed of 20 mM Hepes, pH 7.5, 2.5 mM KCl, 2.5 mM MgCl2, 1 mM DTT, 1.6 U RNAse inhibitor (Promega N2515), 0.1 mg/ml BSA (Promega R3961), and 2% glycerol. All compounds were serially diluted (3-fold) in DMSO and diluted further in water such that the final concentration of DMSO in the assay was 2%. HCV RdRp genotype 1b enzyme was used at a final concentration of 28 nM. A polyA template was used at 6 nM, and a biotinylated oligo-dT12 primer was used at 180 nM final concentration. Template was obtained commercially (Amersham 27-4110). Biotinylated primer was prepared by Sigma Genosys. 3H-UTP was used at 0.6 μCi (0.29 μM total UTP). Reactions were initiated by the addition of enzyme, incubated at 30° C. for 60 min, and stopped by adding 25 μl of 50 mM EDTA containing SPA beads (4 μg/μl, Amersham RPNQ 0007). Plates were read on a Packard Top Count NXT after >1 hr incubation at room temperature.
Modified HCV NS5B RdRp enzyme assay. A modified enzyme assay was performed essentially as described for the standard enzyme assay except for the following: The biotinylated oligo dT12 primer was precaptured on streptavidin-coated SPA beads by mixing primer and beads in assay buffer and incubating at room temperature for one hour. Unbound primer was removed after centrifugation. The primer-bound beads were resuspended in 20 mM Hepes buffer, pH 7.5 and used in the assay at final concentrations of 20 nM primer and 0.67 μg/μl beads. Order of addition in the assay: enzyme (14 nM) was added to diluted compound followed by the addition of a mixture of template (0.2 nM), 3H-UTP (0.6 μCi, 0.29 μM), and primer-bound beads, to initiate the reaction; concentrations given are final. Reactions were allowed to proceed for 4 hours at 30° C.
IC50 values for compounds were determined using seven different [I]. […]

HCV replicon = assay: HCV Replicon Luciferase Reporter Assay (LE Assay); type: cell-based, HCV genotype 1b; conditions: Hepatitis C virus
Protocol: (§1) The HCV replicon luciferase assay was developed to monitor the inhibitory effects of compounds described in the disclosure on HCV viral replication. Utilization of a replicon luciferase reporter assay was first described by Krieger et al (Krieger N, Lohmann V, and Bartenschlager R, J. Virol. 75(10):4614-4624 (2001)). HUH-7 cells, constitutively expressing the HCV replicon, were grown in Dulbeccors Modified Eagle Media (DMEM) (Gibco-BRL) containing 10% Fetal calf serum (FCS) (Sigma) and 1 mg/ml G418 (Gibco-BRL). Compounds were serially diluted 3 folds in DMSO for a twenty-point titration and subsequently transferred to sterile 384-well tissue-culture treated plates (Coming cat #3571). The plates were then seeded with 50 μl of cells at a density of 3.0×10^3 cells/well in DMEM containing 4% FCS (final DMSO concentration at 0.5%). After 3 days incubation at 37° C., cells were analyzed for Renilla Luciferase activity using the EnduRen as substrate (Promega cat #E6485). The EnduRen substrate was diluted in DMEM and then added to the plates to a final concentration of 7.5 μM. The plates were incubated for 2 hrs at 37° C. and then read immediately for 30 seconds with Viewlux Imager (PerkinElmer) using a luminescence program. To assess cytotoxicity of compounds, CC50 values were generated by multiplexing the EnduRen-containing plates with Cell Titer-Blue (Promega, cat #G8082). 3 μl of Cell-Titer Blue was added to each well and incubated for 8 hrs at 37° C. The fluorescence signal from each well was read, with an excitation wavelength at 525/10 nm and an emission wavelength of 598/10 nm, using the Viewlux Imager.

HCV replicon genotype 1a = assay: HCV Replicon Luciferase Reporter Assay (LE Assay), genotype 1a replicon; type: cell-based, HCV genotype 1a; conditions: Hepatitis C virus, read-out: LE NeoLuc EC50
Protocol: as §1

[1] = genotype 1b, Huh-7, read-out: LE NeoLuc EC50, Table 1, HUH-7 cells, genotype 1b replicon
[2] = Huh-7, Table 2, HUH-7 cells, read-out: LE NeoLuc EC50

T1 sequence (Q9WMX2 2420-2992): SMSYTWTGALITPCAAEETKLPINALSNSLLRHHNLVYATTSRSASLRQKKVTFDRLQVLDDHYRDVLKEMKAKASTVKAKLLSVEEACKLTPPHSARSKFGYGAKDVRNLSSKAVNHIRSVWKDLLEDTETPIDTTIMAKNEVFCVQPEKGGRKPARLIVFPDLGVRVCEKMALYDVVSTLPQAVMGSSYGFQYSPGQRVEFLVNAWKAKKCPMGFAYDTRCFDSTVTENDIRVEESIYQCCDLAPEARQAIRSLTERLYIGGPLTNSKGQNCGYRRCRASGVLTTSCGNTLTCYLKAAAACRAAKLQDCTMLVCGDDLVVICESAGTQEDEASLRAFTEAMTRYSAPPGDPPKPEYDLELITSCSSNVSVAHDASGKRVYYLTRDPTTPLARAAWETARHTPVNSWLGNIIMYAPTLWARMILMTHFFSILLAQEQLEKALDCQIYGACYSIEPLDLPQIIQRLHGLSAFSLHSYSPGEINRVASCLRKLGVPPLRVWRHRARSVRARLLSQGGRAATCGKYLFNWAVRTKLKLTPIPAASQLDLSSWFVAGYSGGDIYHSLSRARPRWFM

| SMILES | IC50 (HCV NS5B; Table 1) | EC50 (HCV replicon; [1]) | EC50 (HCV replicon genotype 1a) | IC50 (HCV NS5B; Table 2) | EC50 (HCV replicon; [2]) |
| --- | --- | --- | --- | --- | --- |
| COc1ccc2c(c1)[C@@H]1C[C@]1(C(=O)N1CC34CCCC3(CN(C)C4)C1)Cn1c-2c(C2CCCCC2)c2ccc(C(=O)NS(=O)(=O)C(C)C)cc21 (some centres unmarked) | 1.9 to 500 nM | 1.9 to 500 nM |  |  |  |
| COc1ccc2c(c1)C=C(C(=O)N1CC34COCC3(C1)N(C(C)=O)C4)Cn1c-2c(C2CCCCC2)c2ccc(C(=O)NS(=O)(=O)C(C)C)cc21 (centres unmarked) | 1.9 to 500 nM | 1.9 to 500 nM |  |  |  |
| COc1ccc2c(c1)[C@@H]1C[C@]1(C(=O)N1CC34CCC3(C1)N(C(C)=O)C4)Cn1c-2c(C2CCCCC2)c2ccc(C(=O)NS(=O)(=O)C(C)C)cc21 (some centres unmarked) | 1.9 to 500 nM | 1.9 to 500 nM |  |  |  |
| COc1ccc2c(c1)[C@@H]1C[C@]1(C(=O)N1CC34COCC3(C1)CN(S(=O)(=O)C(C)C)C4)Cn1c-2c(C2CCCCC2)c2ccc(C(=O)NS(=O)(=O)C(C)C)cc21 (some centres unmarked) | 1.9 to 500 nM |  | 1.9 to 500 nM |  |  |
| COc1ccc2c(c1)[C@@H]1C[C@]1(C(=O)N1CC34CCC3(CN(C(=O)N(C(C)C)C(C)C)C4)C1)Cn1c-2c(C2CCCCC2)c2ccc(C(=O)NS(=O)(=O)C(C)C)cc21 (some centres unmarked) | 1.9 to 500 nM |  | 1.9 to 500 nM |  |  |
| COc1ccc2c(c1)[C@@H]1C[C@]1(C(=O)N1CC34COCC3(CN(CC(F)(F)F)C4)C1)Cn1c-2c(C2CCCCC2)c2ccc(C(=O)NS(=O)(=O)C(C)C)cc21 (some centres unmarked) | 1.9 to 500 nM |  | 1.9 to 500 nM |  |  |
| COc1ccc2c(c1)[C@@H]1C[C@]1(C(=O)N1CC34COCC3(CN(CC(F)(F)F)C4)C1)Cn1c-2c(C2CCCCC2)c2ccc(C(=O)NS(=O)(=O)N(C)C)cc21 (some centres unmarked) | 1.9 to 500 nM |  | 1.9 to 500 nM |  |  |
| COc1ccc2c(c1)[C@@H]1C[C@]1(C(=O)N1CC34COCC3(C1)CN(S(=O)(=O)C(C)C)C4)Cn1c-2c(C2CCCCC2)c2ccc(C(=O)NS(=O)(=O)N(C)C)cc21 (some centres unmarked) | < 1.7 nM |  | 1.9 to 500 nM |  |  |
| COc1ccc2c(c1)[C@@H]1C[C@]1(C(=O)N1CC34CCC3(CN(C(=O)N(C)C)C4)C1)Cn1c-2c(C2CCCCC2)c2ccc(C(=O)NS(=O)(=O)C(C)C)cc21 (some centres unmarked) | 1.9 to 500 nM |  | 1.9 to 500 nM |  |  |
| COc1ccc2c(c1)[C@@H]1C[C@]1(C(=O)N1CC34CCC3(CN(C(=O)N3CCCC3)C4)C1)Cn1c-2c(C2CCCCC2)c2ccc(C(=O)NS(=O)(=O)C(C)C)cc21 (some centres unmarked) | 1.9 to 500 nM |  | 1.9 to 500 nM |  |  |
| COc1ccc2c(c1)[C@@H]1C[C@]1(C(=O)N1CC34CCC3(CN(C(=O)N3CCOCC3)C4)C1)Cn1c-2c(C2CCCCC2)c2ccc(C(=O)NS(=O)(=O)C(C)C)cc21 (some centres unmarked) | 1.9 to 500 nM |  | 1.9 to 500 nM |  |  |
| COc1ccc2c(c1)[C@@H]1C[C@]1(C(=O)N1CC34CCC3(CN(C(=O)N(C(C)C)C(C)C)C4)C1)Cn1c-2c(C2CCCCC2)c2ccc(C(=O)NS(=O)(=O)N(C)C)cc21 (some centres unmarked) | 1.9 to 500 nM |  | 1.9 to 500 nM |  |  |
| COc1ccc2c(c1)[C@@H]1C[C@]1(C(=O)N1CC34CCC3(CN(C(=O)N3CCCC3)C4)C1)Cn1c-2c(C2CCCCC2)c2ccc(C(=O)NS(=O)(=O)N(C)C)cc21 (some centres unmarked) | 1.9 to 500 nM |  | 1.9 to 500 nM |  |  |
| COc1ccc2c(c1)[C@@H]1C[C@]1(C(=O)N1CC34CCC3(CN(C(=O)N3CCOCC3)C4)C1)Cn1c-2c(C2CCCCC2)c2ccc(C(=O)NS(=O)(=O)N(C)C)cc21 (some centres unmarked) | 1.9 to 500 nM |  | 1.9 to 500 nM |  |  |
| COc1ccc2c(c1)[C@@H]1C[C@]1(C(=O)N1CC34CCC3(CN(CC(F)(F)F)C4)C1)Cn1c-2c(C2CCCCC2)c2ccc(C(=O)NS(=O)(=O)C(C)C)cc21 (some centres unmarked) | 1.9 to 500 nM |  | 1.9 to 500 nM |  |  |
| COc1ccc2c(c1)[C@@H]1C[C@]1(C(=O)N1CC34CCC3(C1)C[N+]([O-])(CC(F)(F)F)C4)Cn1c-2c(C2CCCCC2)c2ccc(C(=O)NS(=O)(=O)N(C)C)cc21 (some centres unmarked) | < 1.7 nM |  | 1.9 to 500 nM |  |  |
| COc1ccc2c(c1)[C@@H]1C[C@]1(C(=O)N1CC34CCC3(CN(CC(F)(F)F)C4)C1)Cn1c-2c(C2CCCCC2)c2ccc(C(=O)NS(=O)(=O)N(C)C)cc21 (some centres unmarked) | 1.9 to 500 nM | 1.9 to 500 nM |  |  |  |
| COC(=O)N1CC23CCC2(C1)CN(C(=O)[C@]12C[C@H]1c1cc(OC)ccc1-c1c(C4CCCCC4)c4ccc(C(=O)NS(=O)(=O)C(C)C)cc4n1C2)C3 (some centres unmarked) | 1.9 to 500 nM | 1.9 to 500 nM |  |  |  |
| COc1ccc2c(c1)[C@@H]1C[C@]1(C(=O)N1CC34CCC3(C1)CN(S(=O)(=O)C(C)C)C4)Cn1c-2c(C2CCCCC2)c2ccc(C(=O)NS(=O)(=O)N(C)C)cc21 (some centres unmarked) | 1.9 to 500 nM | 1.9 to 500 nM |  |  |  |
| COc1ccc2c(c1)[C@@H]1C[C@]1(C(=O)N1CC34CCC3(C1)CN(S(=O)(=O)C(C)C)C4)Cn1c-2c(C2CCCCC2)c2ccc(C(=O)NS(=O)(=O)C(C)C)cc21 (some centres unmarked) | 1.9 to 500 nM | 1.9 to 500 nM |  |  |  |
| CCOCCN1CC23CCC2(C1)CN(C(=O)[C@]12C[C@H]1c1cc(OC)ccc1-c1c(C4CCCCC4)c4ccc(C(=O)NS(=O)(=O)C(C)C)cc4n1C2)C3 (some centres unmarked) |  |  | 1.9 to 500 nM |  |  |
| COc1ccc2c(c1)[C@@H]1C[C@]1(C(=O)N1CC34CCC3(C1)CN(C1CC1)C4)Cn1c-2c(C2CCCCC2)c2ccc(C(=O)NS(=O)(=O)N(C)C)cc21 (some centres unmarked) |  |  | 1.9 to 500 nM |  |  |
| COc1ccc2c(c1)[C@@H]1C[C@]1(C(=O)N1CC34CCC3(CN(C)C4)C1)Cn1c-2c(C2CCCCC2)c2ccc(C(=O)NS(=O)(=O)C(C)C)cc21 (some centres unmarked) [drawing 71] | 1.9 to 500 nM | 1.9 to 500 nM |  |  |  |
| CNC(=O)N1CC23CCC2(C1)CN(C(=O)[C@]12C[C@H]1c1cc(OC)ccc1-c1c(C4CCCCC4)c4ccc(C(=O)NS(=O)(=O)C(C)C)cc4n1C2)C3 (some centres unmarked) [drawing 99] | < 1.7 nM | 1.9 to 500 nM |  |  |  |
| COc1ccc2c(c1)[C@@H]1C[C@]1(C(=O)N1CC34CCC3(CN(C)C4)C1)Cn1c-2c(C2CCCCC2)c2ccc(C(=O)NS(=O)(=O)C(C)C)cc21 (some centres unmarked) [drawing 108] |  |  |  | 3.5 nM | 6.96 nM |
| CNC(=O)N1CC23CCC2(C1)CN(C(=O)[C@]12C[C@H]1c1cc(OC)ccc1-c1c(C4CCCCC4)c4ccc(C(=O)NS(=O)(=O)C(C)C)cc4n1C2)C3 (some centres unmarked) [drawing 111] |  |  |  | < 1.7 nM | 60 nM |
